SMILES	melting point [°C]
CC(NC(C)CN(CC(C)NC(C)=C1C(=O)CC(C)(C)CC1=O)C(=O)/C=C\C(=O)O)=C1C(=O)CC(C)(C)CC1=O (stereo not drawn)	68 to 70
O=C1NCCNN1c1cc(C(F)(F)F)cc(Cl)n1	191 to 192
O=S1(=O)N=CN(C2CC2)c2cc(Br)cc(C(F)(F)F)c21	253 to 254
O=c1oc(-c2ccccc2)cc(O)c1C(SC1CCCC1)C1CCCC1 (stereo not drawn)	139 to 142
CC[C@H](C)[C@H](NC(=O)N(C)Cc1ccccn1)C(=O)N[C@@H](Cc1ccccc1)[C@@H](O)C[C@H](Cc1ccccc1)NC(=O)OCc1cncs1	66 to 69
O=S(=O)(c1ccccc1)N1CCC(=C(c2ccc(F)cc2)c2ccc(F)cc2)CC1	90 to 92.5
CCCCCCOc1ccc(-c2cc(CO)ccc2CO)cc1	72.5 to 74
CCOc1ccc(N(c2ccccc2)C2(c3ccc(N(CC)Cc4ccccc4)cc3)OC(=O)c3cc(N(C)C)ccc32)cc1 (stereo not drawn)	148 to 152
CCCCn1c(-c2ccc(OC)cc2)nc2c3ccccc3ccc21	99.5 to 100
CN1CC2CC1CN2C1=Nc2cc(Cl)ccc2Sc2ccccc21 (stereo not drawn)	62 to 64
COc1ccc(COc2cc3c(cc2-c2cc(C=CC(=O)O)ccc2O)C(C)(C)CCC3(C)C)cc1	170 to 172
CC(C)(C)OC(=O)C[C@H](NC(=O)CNC(=O)c1csc(NC(=O)NCc2ccccn2)n1)C(=O)NCc1ccccn1	112
COc1cc(/C=C/C(=O)/C=C/c2cc(OC)c(O)c(OC)c2)cc(OC)c1O	166 to 168
CN1CCC(c2cc3cc(C4(O)CCCCC4)ccc3o2)CC1	155 to 157
Cn1c(-c2ccc(F)cc2)c(OCCOc2ccc(C=C3SC(=O)NC3=O)cc2)c(=O)c2ccccc21	225 to 228
COc1ccc2c(c1)c1c3c(c(-c4c(Cl)cccc4Cl)cc1n2CCO)C(=O)NC3=O	229 to 231

The remaining lines, values ahead:

melting point [°C]	SMILES
112 to 115	COc1cc(CC(=O)NCCOc2ccc(C(=O)O)cc2[N+](=O)[O-])ccc1NC(=O)Nc1ccccc1C
120	Cc1c(Cl)cccc1S(=O)(=O)Nc1ccc2occ(C)c2c1
157 to 158	O=C(O)C1=NN(c2cccc(Cl)c2)C(c2ccccc2)CC1 (stereo not drawn)
161	CCOC(=O)c1cc2sc(C)c(N(C)S(=O)(=O)c3cccs3)c2[nH]1
182 to 184	CCc1nc2c(N)nc3ccccc3c2n1CCOCCNC(=O)N1CCOCC1
152	CNC1C=Cc2cc(O)ccc2CC1 (stereo not drawn)
151 to 152	O=C1Nc2ccccc2N(C(=O)CCCCl)c2ccccc21
176 to 178	CSc1ccc(C(N)=O)c([N+](=O)[O-])c1
223 to 227	COc1c(Br)cc2c3c(cccc13)C(=O)N(O)C2=O
66 to 67	CC(C)(C)OC(=O)c1ccc(Cl)c([N+](=O)[O-])c1
77 to 78	COc1ccc(C2CCCC(=O)N2c2ccccc2)cc1 (stereo not drawn)
124 to 125	COc1ccc(-n2cc(CCCOc3c(CC(=O)O)cccc3OC)c(C(C)C)n2)nn1
149 to 150	CCOC(=O)C(C(=O)OCC)N1CC(N2C(=O)c3ccccc3C2=O)C1=O (stereo not drawn)
186 to 188	COC(=O)c1ccc(C(=O)N2Cc3cccn3Cc3ccccc32)cc1
130 to 131	CCc1cn2ccccc2c1S(=O)(=O)c1ccc(OCCCn2ccnc2)cc1
62.8	CC(C)Oc1ccc(F)c(N2C(=O)C3=C(CCCC3)C2=O)c1
177 to 179	C=CCONC(=O)c1nc(-c2ccc(C)cc2)cc(N)c1Cl
69.5 to 70.5	O=[N+]([O-])c1cc(Cl)c(Cl)cc1-n1cccc1
112 to 115	CC1=C(C(=O)OCCCN(C)C)C(c2ccccc2)C2=C(COC2=O)N1 (stereo not drawn)
212 to 213	O=C(O)CCC(=O)c1ccc(-c2ccc(Cl)s2)cc1
137 to 138	CC(C)Oc1cc(NC(=O)C2=C(C(=O)N(C)C)CCCC2)ccc1Br
247 to 249	CC(=O)OC[C@@H]1C=C[C@H](n2cnc3c(=O)[nH]c(N)nc32)C1

Reference: a melting point compilation (Tetko et al.; mined from patent text by program, amines drawn as free bases though some values may be those of a salt)
